Like-named read-outs stand apart in the source and are kept apart here.

For series [1] the following is noted: from Cc1cccc(C)c1-c1cc(OC[C@@H](CC(C)(C)C)NCc2cn3ccc(Br)cc3n2)nc(NS(=O)(=O)c2cccc(C(=O)O)c2)n1; amide bond; 13-membered ring; CDMT/NMM; DMF; 28.2 mM; 3.08 h.
For series [2] the following is noted: amide bond, 13-membered ring.
Series [3] concerns the target T1, CFTR (F508del/MF-HBE cells) (Homo sapiens, UniProt P13569, DEL508-508).
T1 construct: human bronchial epithelial (HBE) cells derived from CF subjects heterozygous for F508del and a minimal function CFTR mutation (F508del/MF-HBE); endogenous in cells; host or cells: Primary human bronchial epithelial cells from CF subjects (F508del/MF genotype), differentiated at an air-liquid interface
The series is described as follows: Ussing chamber assay of CFTR-mediated short-circuit currents, Assay D (single concentration of 1 μM). Format: cell-based. The conditions noted are these: with 44 nM potentiator and 18 μM Tezacaftor, 18-24 hours, 20% human serum. In short, it runs like this: (§1)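 Short-circuit current was recorded at 37 °C under voltage clamp (0 mV) with amiloride 30 μM apically, forskolin 20 μM activation, then BPO/GlyH-101/inh-172 (20 μM each) to isolate CFTR current. Before recording, corrector exposure lasted 18–24 h with 18 μM tezacaftor, 20% human serum, and 33 nM (dose–response) or 44 nM (1 μM fixed) potentiator, maintained throughout.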

Series [4] deals with T1, CFTR (F508del/MF-HBE cells). As to the kind of experiment: Ussing chamber assay of CFTR-mediated short-circuit currents, Assay C (0.026 μM to 25 μM, 6 concentrations). In kind it is cell-based. The conditions noted are these: with 33 nM potentiator and 18 μM Tezacaftor, 20% human serum. In short, it runs like this: as §1

T1 sequence (P13569 with tags, fused parts or gaps DEL508-508): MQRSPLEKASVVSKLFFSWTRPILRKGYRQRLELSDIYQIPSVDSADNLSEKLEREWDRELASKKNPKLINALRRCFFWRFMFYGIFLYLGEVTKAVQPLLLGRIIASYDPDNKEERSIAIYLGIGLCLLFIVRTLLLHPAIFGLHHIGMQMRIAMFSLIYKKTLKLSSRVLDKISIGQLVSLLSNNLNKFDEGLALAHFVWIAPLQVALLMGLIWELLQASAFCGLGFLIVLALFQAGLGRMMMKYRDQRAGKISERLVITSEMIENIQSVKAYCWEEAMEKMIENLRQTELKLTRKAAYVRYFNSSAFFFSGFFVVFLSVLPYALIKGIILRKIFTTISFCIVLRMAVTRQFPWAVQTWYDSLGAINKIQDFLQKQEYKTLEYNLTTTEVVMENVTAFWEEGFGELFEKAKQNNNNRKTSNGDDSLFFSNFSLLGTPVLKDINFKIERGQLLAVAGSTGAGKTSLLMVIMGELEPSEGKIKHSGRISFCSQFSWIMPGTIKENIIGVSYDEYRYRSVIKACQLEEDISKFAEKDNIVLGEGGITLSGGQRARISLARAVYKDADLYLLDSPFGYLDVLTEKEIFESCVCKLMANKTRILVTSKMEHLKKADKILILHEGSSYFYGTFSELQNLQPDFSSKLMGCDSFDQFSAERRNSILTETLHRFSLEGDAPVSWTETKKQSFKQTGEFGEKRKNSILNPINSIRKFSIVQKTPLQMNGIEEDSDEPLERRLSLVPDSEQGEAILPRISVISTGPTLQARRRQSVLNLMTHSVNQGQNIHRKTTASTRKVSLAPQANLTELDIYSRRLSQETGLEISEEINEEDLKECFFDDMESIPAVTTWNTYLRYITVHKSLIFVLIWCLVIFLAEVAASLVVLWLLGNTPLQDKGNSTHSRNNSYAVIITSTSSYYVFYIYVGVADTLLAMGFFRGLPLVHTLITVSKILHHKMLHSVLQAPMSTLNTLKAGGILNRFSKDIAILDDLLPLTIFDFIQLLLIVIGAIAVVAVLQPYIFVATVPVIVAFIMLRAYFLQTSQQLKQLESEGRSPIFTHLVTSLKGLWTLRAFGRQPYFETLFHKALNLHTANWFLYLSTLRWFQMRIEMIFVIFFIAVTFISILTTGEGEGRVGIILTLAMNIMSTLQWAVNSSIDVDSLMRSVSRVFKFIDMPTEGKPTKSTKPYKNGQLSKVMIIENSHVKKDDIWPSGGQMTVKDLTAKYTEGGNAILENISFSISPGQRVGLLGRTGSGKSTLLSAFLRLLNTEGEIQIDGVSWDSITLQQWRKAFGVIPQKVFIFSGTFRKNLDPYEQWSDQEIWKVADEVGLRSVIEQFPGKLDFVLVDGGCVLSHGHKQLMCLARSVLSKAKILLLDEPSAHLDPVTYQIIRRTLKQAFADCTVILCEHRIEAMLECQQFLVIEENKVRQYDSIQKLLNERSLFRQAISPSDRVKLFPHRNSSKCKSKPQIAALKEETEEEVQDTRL

On to `Cc1cccc(C)c1-c1cc2nc(n1)NS(=O)(=O)c1cccc(c1)C(=O)N(Cc1cn3ccc(Br)cc3n1)[C@H](CC(C)(C)C)CO2`, for which the ring closure, crude yield in series [1] turned out to be 90%.

`Cc1cccc(C)c1-c1cc2nc(n1)NS(=O)(=O)c1cccc(c1)C(=O)N(Cc1cncc(Cl)n1)[C@H](CCC(C)(C)C)CO2`: the ring closure, isolated yield in series [2] (from Cc1cccc(C)c1-c1cc(OC[C@@H](CCC(C)(C)C)NCc2cncc(Cl)n2)nc(NS(=O)(=O)c2cccc(C(=O)O)c2)n1, CDMT/NMM, DMF, 15.0 mM, 18.0 h) was 48%.

On to `Cc1cccc(C)c1-c1cc2nc(n1)NS(=O)(=O)c1cccc(c1)C(=O)N(Cc1cnc3oc(Br)cc3n1)[C@H](CC1(C)CC1)CO2` [Compound I-254, (11R)-12-[(6-bromofuro[2,3-b]pyrazin-2-yl)methyl]-6-(2,6-dimethylphenyl)-11-[(1-methylcyclopropyl)methyl]-2,2-dioxo-9-oxa-2λ^6-thia-3,5,12,19-tetrazatricyclo[12.3.1.14,8]nonadeca-1(18),4(19),5,7,14,16-hexaen-13-one], for which, in series [2] (from Cc1cccc(C)c1-c1cc(OC[C@@H](CC2(C)CC2)NCc2cnc3oc(Br)cc3n2)nc(NS(=O)(=O)c2cccc(C(=O)O)c2)n1, CDMT?, 16.0 h), the ring closure, isolated yield turned out to be 65%. Further, in series [3], the “D activity at 1 μM (%)” value is reported as “++ (++ is 30-60%)”.

In turn, `Cc1cccc(C)c1-c1cc2nc(n1)NS(=O)(=O)c1cccc(c1)C(=O)N(Cc1cnc3oc(C4CC4)cc3n1)C(C(C(C)C)C(C)C)CO2` (single isomer, unassigned) [Compound I-177, 12-[(6-cyclopropylfuro[2,3-b]pyrazin-2-yl)methyl]-6-(2,6-dimethylphenyl)-11-(1-isopropyl-2-methyl-propyl)-2,2-dioxo-9-oxa-2λ^6-thia-3,5,12,19-tetrazatricyclo[12.3.1.14,8]nonadeca-1(18),4(19),5,7,14,16-hexaen-13-one] showed a ring closure, isolated yield in series [2] (from Cc1cccc(C)c1-c1cc(OCC(NCc2cnc3oc(C4CC4)cc3n2)C(C(C)C)C(C)C)nc(NS(=O)(=O)c2cccc(C(=O)O)c2)n1, CDMT/NMM, DMF, 15.0 mM, 68.0 h) of 31%. The Emax in series [4] (18-24 hours, read-out: C Max activity (%)) is above 60%. Moreover, the EC50 (usually the concentration that produces a half-maximal response) in series [4] is below 1000 nM. Also, in series [3], the “D activity at 1 μM (%)” value is “+++ (+++ is >60%)”.

These data come from patent US20250340574A1, “MODULATORS OF CYSTIC FIBROSIS TRANSMEMBRANE CONDUCTANCE REGULATOR” (Vertex Pharmaceuticals Incorporated, priority 2022, published 2025).
